Measured values as given in patent publication US20240108674A1, “BERBERIS EXTRACT NANO-FORMULATION AND PROCESS OF PREPARATION THEREOF” (priority 2021, published 2024).

Tested on: RBC membrane
Assay: In-vitro anti-inflammatory activity, RBC membrane protection
Format: cell-based
Conditions: concentration of 5 mg/mL

SMILES | RBC membrane protection
O=C(O)Cc1ccccc1Nc1c(Cl)cccc1Cl [diclofenac sodium] | 76%
C[C@]12C=CC(=O)C=C1CC[C@@H]1[C@@H]2[C@@H](O)C[C@@]2(C)[C@H]1CC[C@]2(O)C(=O)CO [prednisolone] | 73%
